# Assay results published in US6969507B2, “Imaging sexual response” (Epix Pharmaceuticals, Inc., priority 1999, dated 2005).
# Experiment: Dynamic MS-325 contrast-enhanced MRI of the genitalia/perineum during neutral and erotic video
# Type: in vivo, human
# Settings: eight healthy women; 0.05 or 0.02 mmol/kg intravenous
# Experimental: Imaging of the genitalia was performed in four pre-menopausal and four post-menopausal healthy, sexually functional women subjects after administration of MS-325 (MS-325, EPIX Medical, Inc.). All volunteers signed an IRB-approved informed consent form for the study.
# Six of the subjects received an intravenous injection of 0.05 mmol/kg of MS-325 and two received an intravenous injection of 0.02 mmol/kg of MS-325. Dynamic MRI (3D SPGR, 11/1.7/35°) of the perineum was performed on all subjects while they viewed videos containing first neutral material, then erotic material and finally neutral material via a fiberoptic audiovideo system. Each segment of neutral or erotic material was up to 15 minutes in length. Subjects also filled out questionnaires in response to the videos that had them subjectively rate their degree of sexual arousal.
# Serial imaging was performed at least every 3 minutes, beginning just prior to contrast injection and continuing up to 45 minutes post injection. […] Clitoral volume was measured at each time point. Relative regional blood volume was determined from signal intensity versus time curves and compared with subjective measures of arousal.
# In these studies, MRI was compared with vaginal photoplethysmography to confirm that MRI accurately assessed the vascular component of the arousal response.
smiles,measurement,value
O=C([O-])CN(CCN(CC(=O)[O-])C[C@H](COP(=O)([O-])OC1CCC(c2ccccc2)(c2ccccc2)CC1)N(CC(=O)[O-])CC(=O)[O-])CC(=O)[O-].[Gd+3].[H+].[H+].[H+] [MS-325],tolerability of the procedure (contrast injection and MRI),tolerated
